In patent publication US8598145B2, “Mitochondrially delivered anti-cancer compounds” (priority 2008, dated 2013):

Columns and labels:
adherent MCF7 cells = experiment: ROS production by flow cytometry, adherent cells (FIG. 8); type: cell-based, human; details: 3 h; α-TOS 50 μM, MitoVES homologues 5 μM
Procedure: Adherent MCF7 cells and the corresponding mammosphere cells (MS) were cultured and assessed for morphological changes by microscopy (A) and for expression levels of markers as indicators of “sternness” by RT-PCR (B) and flow cytometry (C), including the expression of CD44 and CD24 (D). The adherent MCF7 cells (E) and the MS cells (F) were treated with 5 μM MitoVES, 50 μM α-TOS or 10 μM parthenolide and assessed for their sensitivity to drug induced cell death. […] Adherent MCF7 cells (I) and MS cells (J) were treated for 3 h with α-TOS (50 μM) or MitoVES homologues containing different lengths in the aliphatic side chain (5 μM each, either 11, 7 or 5 carbon chain in length) and the treated cells assessed for production of reactive oxygen species (ROS) by flow cytometry.
Cellular ROS were detected indirectly by flow cytometry and directly by electron paramagnetic resonance (EPR) spectroscopy, following treatment of cells with α-TOS as indicated in the Legend to Figures. […] For indirect evaluation, cells were treated with α-TOS and reacted with dihydrodichlorofluorescein diacetate (DCF; Molecular Probes) for 30 min, and scored by flow cytometry for cells with high fluorescence, which was evaluated on the bases on increase in mean fluorescence intensity. […]

Meso-2 = experiment: MTT viability assay (IC50); type: cell-based, human; details: Meso-2, ~60% confluency
From the text: The following cell lines used in this study were obtained from ATCC, unless specified otherwise: Human T lymphoma cells Jurkat, human mesothelioma cells Meso-I, MM-BI, Ist-Mes, Ist-Mes-2 (Pass, H. I. et al. Characteristics of nine newly derived mesothelioma cell lines. Ann. Thorac. Surg. 59, 835-844 (1995)), human breast cancer cells MCF-7 (erbB2-low) and MDA-MB-453 (erbB2-high), human colorectal cells HCT-116, human hepatocarcinoma cells Huh-7, mouse mesothelioma cells AE17 (Jackaman, C. et al. IL-2 intratumoral immunotherapy enhances CD8+ T cells that mediate destruction of tumor cells and tumor-associated vasculature: a novel mechanism for IL-2. J. Immunol. 171, […] (2003), human non-malignant mesothelial cells Met-5A, […] (Claycomb, W. C. et al. HL-1 cells: a cardiac muscle cell line that contracts and retains phenotypic characteristics of the adult cardiomyocyte. Proc. Natl. Acad. Sci. USA 95, 2979-2984 […]) and H9c2, and the human endothelial-like cells EAhy926 (Edgell, C. J., McDonald, C. C. & Graham, J. B. Permanent cell line expressing human factor VIII-related antigen established by hybridization. Proc. Natl. Acad. Sci. USA 80, 3734-3737 (1983)). Jurkat cells were grown in the RPMI medium while DMEM was used for other malignant cell lines and for Met-5A cells, supplemented with 10% FCS and antibiotics. HL-1 cells, maintained in fibronectin/gelatine-coated dishes, were grown in the Claycomb medium supplemented with noradrenalin (Claycomb, W. C. et al. HL-1 cells: a cardiac muscle cell line that contracts and retains phenotypic characteristics of the adult cardiomyocyte. Proc. Natl. Acad. Sci. USA 95, 2979-2984 […]), EAhy926 cells were grown in complete DMEM supplemented with HAT (Edgell, C. J., McDonald, C. C. & Graham, J. B. Permanent cell line expressing human factor VIII-related antigen established by hybridization. Proc. Natl. Acad. Sci. USA 80, 3734-3737 (1983)). Cells deficient in mtDNA (ρ^0 phenotype) were prepared as detailed in Weber, T. et al., (Mitochondria play a central role in apoptosis induced by α-tocopheryl succinate, an agent with anticancer activity. Comparison with receptor-mediated pro-apoptotic signaling. Biochemistry 42, 4277-4291 (2003)). Acquisition of the ρ^0 phenotype was confirmed by lack of expression by the cells of the mtDNA-encoded cytochrome c oxidase subunit II (COXII not shown). Chinese hamster lung fibroblasts deficient in complex I (B10 cells) (See, B. B. et al. Molecular remedy of complex I defects: rotenone-insensitive internal NADH-quinone oxidoreductase of Saccharomyces cerevisiae mitochondria restores the NADH oxidase activity of complex I-deficient mammalian cells. Proc. Natl. Acad. Sci. USA 95, 9167-9171 (1998)) and complex II (CybL^−/−; B9 cells) (Oostveen, F. G., Au, H. C., Meijer, P. J. & Scheffler, I. E. A Chinese hamster mutant cell line with a defect in the integral membrane protein CII-3 of complex II of the mitochondrial electron transport chain. J. Biol. Chem. 270: 26104-26108 (1995)) as well as the parental cells (B1 cells) (Oostveen, F. G., Au, H. C., Meijer, P. J. & Scheffler, I. E. A Chinese hamster mutant cell line with a defect in the integral membrane protein CII-3 of complex II of the mitochondrial electron transport chain. J. Biol. Chem. 270: 26104-26108 (1995)) were grown in DMEM with 10% FCS, antibiotics, 10 mg/ml glucose and non-essential aminoacids.
Toxicity of α-TOS, VE11S (“VES”), MitoVE3S, MitoVE5S, MitoVE7S, MitoVE9S, MitoVE11S (“MitoVES”), MitoVE11AE (“MitoVEAE”), MitoVE11F (“MitoVEF”), MitoVE11M (“MitoVEM”), and VES4TPP towards cancer cells was assessed on the basis of IC50, as detailed in Turanek, J., et al. ((2008). Liposomal formulation of vitamin E analogs as an efficient and selective anti-cancer treatment. Clin. Cancer Res. (submitted)). […]

Q: Which results are given for `Cc1c(C)c2c(c(C)c1OC(=O)CCC(=O)[O-])CCC(C)(CCCCCCCCCCC[P+](c1ccccc1)(c1ccccc1)c1ccccc1)O2` (stereo not shown) [MitoVE11S]?
A: ROS production in adherent MCF7 cells (adherent MCF7 cells): greater ROS accumulation; IC50 (Meso-2): 2.4 ± 0.5 µM

Q: Which results are given for `Cc1c(C)c2c(c(C)c1OC(=O)CCC(=O)O)CC[C@@](C)(CCC[C@H](C)CCC[C@H](C)CCCC(C)C)O2` [α-TOS, α-tocopheryl succinate, reference compound]?
A: ROS production in adherent MCF7 cells (adherent MCF7 cells): significant production of ROS; IC50 (Meso-2): 29 ± 5 µM
